These results are taken from paper PMC11843613, “Further Optimization of the mGlu1 PAM VU6024578/BI02982816: Discovery and Characterization of VU6033685” (ACS Chemical Neuroscience, 2025).

Series [1] relates to striatal DA release. The series is described as follows: Electrically evoked striatal DA release in brain slices (fast scanning cyclic voltammetry). As to conditions: 10 μM DHPG alone, mouse slices. The procedure:
into the home cage. The arena is then cleaned with 70% ethanol in between animals. The day of the test the animals are habituated to the dosing room for 2 hours. The animals were administered VU6024578 (1-10 mg/kg p.o.) or vehicle (10% Tween 80) and were placed back into their homecage for 60 min. The animals were then injected with MK-801 (0.075 mg/kg 1 ml/kg s.c.) and placed back in the homecage for 30 min. The animals are then placed into the arena with two identical familiar objects for ten minutes and then placed back into the home cage. The animals are then placed back into the arena with one of the familiar objects replaced with a novel object at 120 min after the familiar object exposure. The activity of the animals are recorded and the time spent exploring each of the objects is scored by a blinded observer. Recognition index is determined by subtracting […] divided by total time spent exploring.
Brain Slice Preparation and Fast Scanning Cyclic Voltammetry: […]
Electrically-evoked dopamine overflow was monitored with carbon fiber electrodes as previously reported (Foster et al. 2014). […]

In series [2] the target is T1, human mGlu1 (Homo sapiens, UniProt Q13255).
T1 construct: expressed in transfected cells; pcDNA5/TO)
T1 sequence (Q13255 19-1194): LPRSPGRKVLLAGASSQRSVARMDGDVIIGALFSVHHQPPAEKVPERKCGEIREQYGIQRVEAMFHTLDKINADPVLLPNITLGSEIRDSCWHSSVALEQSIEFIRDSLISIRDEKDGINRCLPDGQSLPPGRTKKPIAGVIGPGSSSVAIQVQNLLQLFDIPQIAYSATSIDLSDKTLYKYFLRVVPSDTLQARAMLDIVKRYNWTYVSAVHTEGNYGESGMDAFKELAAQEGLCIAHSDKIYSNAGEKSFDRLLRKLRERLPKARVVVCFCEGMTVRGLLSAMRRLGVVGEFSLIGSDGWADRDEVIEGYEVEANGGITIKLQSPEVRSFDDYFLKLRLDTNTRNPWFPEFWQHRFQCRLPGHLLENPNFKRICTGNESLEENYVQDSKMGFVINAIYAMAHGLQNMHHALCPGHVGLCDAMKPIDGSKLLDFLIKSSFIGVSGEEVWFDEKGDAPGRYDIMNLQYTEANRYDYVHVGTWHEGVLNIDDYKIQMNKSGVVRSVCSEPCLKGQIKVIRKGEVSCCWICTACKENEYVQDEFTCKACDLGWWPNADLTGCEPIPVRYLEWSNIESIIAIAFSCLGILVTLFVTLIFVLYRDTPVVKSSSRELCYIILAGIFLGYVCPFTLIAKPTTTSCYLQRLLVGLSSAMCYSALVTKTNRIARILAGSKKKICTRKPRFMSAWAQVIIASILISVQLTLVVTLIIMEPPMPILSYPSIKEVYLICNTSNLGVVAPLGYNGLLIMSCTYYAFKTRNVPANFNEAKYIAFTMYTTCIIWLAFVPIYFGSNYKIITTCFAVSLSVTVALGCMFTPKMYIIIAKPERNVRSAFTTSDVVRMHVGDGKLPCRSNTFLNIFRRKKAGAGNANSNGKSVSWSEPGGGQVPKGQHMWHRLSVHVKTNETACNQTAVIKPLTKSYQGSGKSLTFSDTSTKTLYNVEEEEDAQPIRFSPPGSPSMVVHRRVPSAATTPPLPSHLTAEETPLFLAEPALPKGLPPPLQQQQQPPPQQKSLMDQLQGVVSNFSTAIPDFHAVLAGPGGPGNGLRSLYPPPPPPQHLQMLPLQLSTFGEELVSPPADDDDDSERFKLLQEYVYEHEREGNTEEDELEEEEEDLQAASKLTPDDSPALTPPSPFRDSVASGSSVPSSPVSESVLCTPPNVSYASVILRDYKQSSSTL
The arrangement: method as in PMID 39665415. As to conditions: previously reported compound; cited from earlier work.

Details of series [3]: method as in PMID 39665415. As to conditions: cited from earlier work.
Series [4] has as its system amphetamine-induced hyperlocomotion in rats. The arrangement: method as in PMID 39665415. The conditions noted are these: cited from earlier work.

With `N[C@H](C(=O)O)c1cc(O)cc(O)c1` [DHPG, (S)-3,5-dihydroxyphenylglycine, reference compound], in series [1], the “effect on striatal DA release, agonist alone” value is on record as “did not produce a significant inhibition of striatal DA release”.
Consider `Cn1nc(-c2ccnn2C)cc1CNC(=O)c1cc(-c2ccco2)ccc1Cl` [compound 3], for which, in series [2], the “mGlu1 Glumax of 3” value is 83%. Also, in series [3], the “species with adverse events” value is recorded as “only exhibited AEs in dogs”. Also, the “unbound brain level as fold of rat mGlu1 EC50 at which AHL was reversed” value in series [4] is listed as about 0.7 fold.
